Experimental findings from ChEMBL document CHEMBL4627396 (J Med Chem, 2020) are described below.

The structures appear in SMILES notation. pIC50: −log10 of the molar value. The source made the active and inactive calls. The calls are words filed in the database; no cut-off is given here. Some results are limits rather than exact numbers.

The target in data set [1] is T1, Tyrosine-protein kinase SYK (Homo sapiens, UniProt P43405).
Data set [2] deals with Calcium/calmodulin-dependent protein kinase type 1D (Homo sapiens) (UniProt Q8IU85).
In data set [3] the target is T1, Tyrosine-protein kinase SYK. The conditions noted are these: 10 uM.
Data set [4] has as its target Death-associated protein kinase 3 (Homo sapiens) (UniProt O43293). The conditions noted are these: 10 uM.
Data set [5] has as its target Glycogen synthase kinase-3 beta (Homo sapiens) (UniProt P49841). The note with it: 10 uM.
For data set [6], the target named is T2, Calcium/calmodulin-dependent protein kinase type IV (Homo sapiens) (UniProt Q16566).
T2 sequence (whole entry): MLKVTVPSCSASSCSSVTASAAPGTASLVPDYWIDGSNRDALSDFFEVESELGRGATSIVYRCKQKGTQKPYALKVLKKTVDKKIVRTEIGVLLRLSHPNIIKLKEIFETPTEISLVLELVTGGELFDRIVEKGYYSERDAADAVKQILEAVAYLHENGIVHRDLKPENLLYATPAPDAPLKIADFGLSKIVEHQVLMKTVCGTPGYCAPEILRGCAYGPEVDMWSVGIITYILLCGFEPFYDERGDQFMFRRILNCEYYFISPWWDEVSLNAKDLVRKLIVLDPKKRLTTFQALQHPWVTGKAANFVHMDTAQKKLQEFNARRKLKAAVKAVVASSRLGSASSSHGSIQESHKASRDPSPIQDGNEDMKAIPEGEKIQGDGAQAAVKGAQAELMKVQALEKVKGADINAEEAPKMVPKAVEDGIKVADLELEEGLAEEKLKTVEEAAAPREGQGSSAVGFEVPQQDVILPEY
The note with it: 10 uM.

Data set [7] addresses T3, Serine/threonine-protein kinase DCLK1 (Homo sapiens) (UniProt O15075).
T3 sequence (whole entry): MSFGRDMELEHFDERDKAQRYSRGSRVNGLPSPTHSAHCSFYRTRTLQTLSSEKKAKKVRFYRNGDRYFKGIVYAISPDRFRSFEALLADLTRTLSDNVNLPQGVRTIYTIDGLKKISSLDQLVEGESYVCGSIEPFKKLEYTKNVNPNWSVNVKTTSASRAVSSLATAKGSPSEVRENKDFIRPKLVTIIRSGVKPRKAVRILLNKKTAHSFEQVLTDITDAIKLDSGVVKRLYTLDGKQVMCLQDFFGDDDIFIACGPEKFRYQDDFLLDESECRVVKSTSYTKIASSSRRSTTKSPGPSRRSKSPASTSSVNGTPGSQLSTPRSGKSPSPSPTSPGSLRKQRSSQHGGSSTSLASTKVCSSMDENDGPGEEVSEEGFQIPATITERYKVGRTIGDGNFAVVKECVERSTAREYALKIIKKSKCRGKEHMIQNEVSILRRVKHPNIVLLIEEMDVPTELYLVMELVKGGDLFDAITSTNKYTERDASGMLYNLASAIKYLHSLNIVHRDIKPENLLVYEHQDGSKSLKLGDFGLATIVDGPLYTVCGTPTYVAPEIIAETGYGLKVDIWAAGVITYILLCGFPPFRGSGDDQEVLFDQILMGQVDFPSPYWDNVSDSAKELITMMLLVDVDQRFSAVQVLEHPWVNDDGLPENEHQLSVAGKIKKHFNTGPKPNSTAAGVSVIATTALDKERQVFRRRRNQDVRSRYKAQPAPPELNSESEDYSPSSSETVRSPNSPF
The conditions noted are these: 10 uM.

Data set [8] in a line: Drug metabolism in rat microsomes. It counts as ADME, Microsome. The conditions noted are these: read-out: Drug metabolism.
Data set [9] is described as follows: Drug metabolism in human microsomes. It counts as ADME, Microsome. The note with it: read-out: Drug metabolism.
A short description of data set [10]: Drug metabolism in rat hepatocytes assessed per million cells. It counts as ADME, cell-based, Hepatocyte.
Another data set deals with T4, Cytochrome P450 1A2 (Homo sapiens, UniProt P05177).
T4 sequence (P05177 whole entry): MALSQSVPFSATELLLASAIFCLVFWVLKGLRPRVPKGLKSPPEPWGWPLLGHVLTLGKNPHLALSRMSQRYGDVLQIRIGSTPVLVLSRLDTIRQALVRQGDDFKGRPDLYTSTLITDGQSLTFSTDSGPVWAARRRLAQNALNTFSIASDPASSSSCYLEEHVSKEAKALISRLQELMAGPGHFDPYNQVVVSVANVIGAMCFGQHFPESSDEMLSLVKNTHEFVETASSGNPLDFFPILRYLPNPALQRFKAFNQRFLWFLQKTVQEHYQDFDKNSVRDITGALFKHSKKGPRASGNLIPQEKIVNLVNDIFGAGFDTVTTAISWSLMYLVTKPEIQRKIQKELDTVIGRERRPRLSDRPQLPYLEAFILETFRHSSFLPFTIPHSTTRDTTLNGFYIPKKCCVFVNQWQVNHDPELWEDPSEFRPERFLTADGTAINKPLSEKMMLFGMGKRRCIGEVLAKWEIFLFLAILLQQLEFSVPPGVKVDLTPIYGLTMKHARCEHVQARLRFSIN
Kind of data set: Inhibition of CYP1A2 (unknown origin). It counts as ADME.

Another data set addresses Cytochrome P450 2D6 (Homo sapiens, UniProt P10635). Kind of data set: Inhibition of CYP2D6 (unknown origin). It counts as ADME.
The next data set has as its target Cytochrome P450 3A4 (Homo sapiens, UniProt P08684). Kind of data set: Inhibition of CYP3A4 (unknown origin). It counts as ADME.
Data set [11] in a line: Drug excretion in Crl:CD Sprague-Dawley rat urine. It counts as ADME. The conditions noted are these: in vivo.
Data set [12] can be described thus: Drug metabolism in rat plasma assessed as oxidation. It counts as ADME, cell-free.
A short description of data set [13]: Drug metabolism in rat plasma assessed as acetylation. It counts as ADME, cell-free.
A short description of data set [14]: Drug metabolism in rat plasma assessed as amide hydrolysis. It counts as ADME, cell-free.
Data set [15] relates to Mus musculus. Kind of data set: Antidiabetic activity in diet induced obese C57Bl/6J mouse model assessed as reduction in plasma insulin level at 25 to 50 mg/kg, po administered 4 hrs prior to glucose stimulation and measured after 10 to 90 mins by OGTT. It counts as functional, organism-based.
Data set [16] deals with Mus musculus. Kind of data set: Antidiabetic activity in diet induced obese C57Bl/6J mouse model assessed as reduction in blood glucose level at 25 to 50 mg/kg, po administered 4 hrs prior to glucose stimulation and measured after 10 to 90 mins by OGTT. It counts as functional, organism-based.
Data set [17] relates to Mus musculus. Kind of data set: Antidiabetic activity in diet induced obese C57Bl/6J mouse model assessed as reduction in baseline blood glucose level at 25 mg/kg, po administered twice daily for 14 days followed by glucose challenge at 4 hrs post last dose and measured after 10 to 90 mins by OGTT. It counts as functional, organism-based.
Data set [18] has as its system Mus musculus. Kind of data set: Antidiabetic activity in diet induced obese C57Bl/6J mouse model assessed as reduction in plasma insulin level at 25 mg/kg, po administered twice daily for 14 days followed by glucose challenge at 4 hrs post last dose and measured after 10 to 90 mins by OGTT. It counts as functional, organism-based.
Data set [19] concerns Mus musculus. Kind of data set: Antidiabetic activity in diet induced obese C57Bl/6J mouse model assessed as reduction in peak blood glucose level at 25 mg/kg, po administered twice daily for 14 days followed by glucose challenge at 4 hrs post last dose and measured after 10 to 90 mins by OGTT. It counts as functional, organism-based.
The subject of data set [20] is Mus musculus. Kind of data set: Antidiabetic activity in diet induced obese C57Bl/6J mouse model assessed as change in blood glucose AUC at 25 mg/kg, po administered twice daily for 14 days followed by glucose challenge at 4 hrs post last dose and measured after 10 to 90 mins by OGTT. It counts as functional, organism-based.
The nature of data set [21]: Toxicity in diet induced obese C57Bl/6J mouse model assessed as bloating of gastrointestinal tract at 50 mg/kg, po administered twice daily for 14 days. It counts as organism-based. The note with it: in vivo.
A short description of data set [22]: Drug metabolism in mouse microsomes. The conditions noted are these: read-out: Drug metabolism. It counts as ADME, Microsome.
Data set [23] is described as follows: Drug metabolism in human hepatocytes assessed per million cells. It counts as ADME, cell-based, Hepatocyte.
Data set [24] can be described thus: Toxicity in NSG mouse assessed as adverse effect at 40 mg/kg administered once daily for 21 days. It counts as organism-based. The note with it: in vivo.
Data set [25] concerns the target T5, Receptor-interacting serine/threonine-protein kinase 4 (Homo sapiens, UniProt P57078).
T5 sequence (P57078 whole entry): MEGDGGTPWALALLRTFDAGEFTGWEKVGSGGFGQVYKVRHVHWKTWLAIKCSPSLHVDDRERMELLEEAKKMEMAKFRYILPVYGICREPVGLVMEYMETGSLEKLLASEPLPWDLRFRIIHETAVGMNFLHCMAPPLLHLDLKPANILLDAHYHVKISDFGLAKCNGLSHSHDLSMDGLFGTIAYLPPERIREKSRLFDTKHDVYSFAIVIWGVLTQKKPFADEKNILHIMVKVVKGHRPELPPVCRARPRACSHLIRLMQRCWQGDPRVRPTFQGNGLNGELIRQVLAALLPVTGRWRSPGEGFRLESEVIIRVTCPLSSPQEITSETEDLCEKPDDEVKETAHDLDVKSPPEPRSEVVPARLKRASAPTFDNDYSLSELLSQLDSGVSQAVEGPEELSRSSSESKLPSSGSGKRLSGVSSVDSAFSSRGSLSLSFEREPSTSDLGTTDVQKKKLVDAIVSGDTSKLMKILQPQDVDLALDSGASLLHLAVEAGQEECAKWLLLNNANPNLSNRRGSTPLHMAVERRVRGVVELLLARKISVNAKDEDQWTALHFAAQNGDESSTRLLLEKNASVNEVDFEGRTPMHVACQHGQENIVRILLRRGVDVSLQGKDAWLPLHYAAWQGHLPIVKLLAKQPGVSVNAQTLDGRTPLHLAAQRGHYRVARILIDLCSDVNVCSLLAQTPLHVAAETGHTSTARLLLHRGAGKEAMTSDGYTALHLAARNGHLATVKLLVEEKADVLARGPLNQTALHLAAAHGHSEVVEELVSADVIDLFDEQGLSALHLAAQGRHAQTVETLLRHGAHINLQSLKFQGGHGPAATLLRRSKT

The target of data set [26] is T6, Dual specificity mitogen-activated protein kinase kinase 5 (Homo sapiens, UniProt Q13163).
T6 sequence (Q13163 whole entry): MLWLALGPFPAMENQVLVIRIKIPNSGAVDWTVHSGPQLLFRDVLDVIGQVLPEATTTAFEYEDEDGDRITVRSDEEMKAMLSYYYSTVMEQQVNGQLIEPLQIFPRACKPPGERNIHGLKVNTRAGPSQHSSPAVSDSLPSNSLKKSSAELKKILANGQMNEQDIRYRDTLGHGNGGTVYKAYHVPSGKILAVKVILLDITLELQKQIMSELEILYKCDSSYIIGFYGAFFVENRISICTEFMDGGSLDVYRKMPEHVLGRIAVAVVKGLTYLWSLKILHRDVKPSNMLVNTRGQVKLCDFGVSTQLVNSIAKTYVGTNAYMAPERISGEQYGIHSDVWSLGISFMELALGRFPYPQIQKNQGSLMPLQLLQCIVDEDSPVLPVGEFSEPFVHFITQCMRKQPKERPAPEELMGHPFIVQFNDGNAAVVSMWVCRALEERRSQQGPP

For data set [27], the target named is Phosphatidylinositol 4-phosphate 5-kinase type-1 gamma (Homo sapiens, UniProt O60331).
Data set [28] has as its target Mitogen-activated protein kinase kinase kinase 11 (Homo sapiens, UniProt Q16584).
A further data set can be described thus: in vivo. The note with it: Crl:CD Sprague-Dawley, rat, iv, 1 mg/kg.

The pIC50 is the negative decadic logarithm of the IC50, by convention in mol/L. A high value points to a small IC50. The ΔTm is the change in melting temperature against a reference sample. In general, Vd refers to the apparent volume that relates the amount in the body to the concentration in plasma or blood. Read a high Vd as extensive tissue distribution.

Sequence of Cytochrome P450 2D6 (P10635 whole entry): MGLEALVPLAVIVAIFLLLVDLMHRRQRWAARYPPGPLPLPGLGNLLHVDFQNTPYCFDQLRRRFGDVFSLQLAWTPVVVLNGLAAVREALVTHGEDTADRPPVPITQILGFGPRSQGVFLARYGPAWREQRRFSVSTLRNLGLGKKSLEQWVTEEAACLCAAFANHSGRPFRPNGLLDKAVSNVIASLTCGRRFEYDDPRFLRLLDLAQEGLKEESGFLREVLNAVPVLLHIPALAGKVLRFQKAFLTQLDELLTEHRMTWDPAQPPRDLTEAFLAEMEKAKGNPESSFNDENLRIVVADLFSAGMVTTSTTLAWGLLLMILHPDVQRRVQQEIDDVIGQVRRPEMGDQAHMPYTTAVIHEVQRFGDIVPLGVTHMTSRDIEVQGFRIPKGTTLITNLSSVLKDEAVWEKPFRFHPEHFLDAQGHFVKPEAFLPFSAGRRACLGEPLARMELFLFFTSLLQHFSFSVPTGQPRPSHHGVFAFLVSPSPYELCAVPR
Sequence of Cytochrome P450 3A4 (P08684 whole entry): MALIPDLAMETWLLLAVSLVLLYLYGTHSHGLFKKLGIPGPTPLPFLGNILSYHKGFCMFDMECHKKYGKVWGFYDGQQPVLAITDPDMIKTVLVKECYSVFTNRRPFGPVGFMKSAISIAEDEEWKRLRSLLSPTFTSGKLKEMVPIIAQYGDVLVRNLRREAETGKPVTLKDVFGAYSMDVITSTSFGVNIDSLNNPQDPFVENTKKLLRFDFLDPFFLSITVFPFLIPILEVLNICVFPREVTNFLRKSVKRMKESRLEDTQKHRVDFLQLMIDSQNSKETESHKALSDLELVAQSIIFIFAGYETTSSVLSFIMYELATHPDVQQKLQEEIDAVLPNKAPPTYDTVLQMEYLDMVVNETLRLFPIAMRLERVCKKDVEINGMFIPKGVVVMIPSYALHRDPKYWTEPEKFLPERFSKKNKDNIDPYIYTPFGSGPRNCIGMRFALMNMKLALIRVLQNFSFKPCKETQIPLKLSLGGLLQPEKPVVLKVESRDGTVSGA
Sequence of Glycogen synthase kinase-3 beta (Homo sapiens) (P49841 whole entry, looked up): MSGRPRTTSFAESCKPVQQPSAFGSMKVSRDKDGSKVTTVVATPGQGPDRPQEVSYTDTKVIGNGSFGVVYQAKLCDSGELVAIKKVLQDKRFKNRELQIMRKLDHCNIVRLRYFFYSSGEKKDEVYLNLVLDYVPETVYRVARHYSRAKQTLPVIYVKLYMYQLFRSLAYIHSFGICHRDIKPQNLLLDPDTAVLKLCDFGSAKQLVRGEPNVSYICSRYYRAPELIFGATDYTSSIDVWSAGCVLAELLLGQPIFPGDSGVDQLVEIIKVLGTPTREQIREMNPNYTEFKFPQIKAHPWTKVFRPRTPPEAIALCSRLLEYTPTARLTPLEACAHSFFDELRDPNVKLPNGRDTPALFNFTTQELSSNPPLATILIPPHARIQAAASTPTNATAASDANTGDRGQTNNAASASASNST
Sequence of Phosphatidylinositol 4-phosphate 5-kinase type-1 gamma (O60331 whole entry): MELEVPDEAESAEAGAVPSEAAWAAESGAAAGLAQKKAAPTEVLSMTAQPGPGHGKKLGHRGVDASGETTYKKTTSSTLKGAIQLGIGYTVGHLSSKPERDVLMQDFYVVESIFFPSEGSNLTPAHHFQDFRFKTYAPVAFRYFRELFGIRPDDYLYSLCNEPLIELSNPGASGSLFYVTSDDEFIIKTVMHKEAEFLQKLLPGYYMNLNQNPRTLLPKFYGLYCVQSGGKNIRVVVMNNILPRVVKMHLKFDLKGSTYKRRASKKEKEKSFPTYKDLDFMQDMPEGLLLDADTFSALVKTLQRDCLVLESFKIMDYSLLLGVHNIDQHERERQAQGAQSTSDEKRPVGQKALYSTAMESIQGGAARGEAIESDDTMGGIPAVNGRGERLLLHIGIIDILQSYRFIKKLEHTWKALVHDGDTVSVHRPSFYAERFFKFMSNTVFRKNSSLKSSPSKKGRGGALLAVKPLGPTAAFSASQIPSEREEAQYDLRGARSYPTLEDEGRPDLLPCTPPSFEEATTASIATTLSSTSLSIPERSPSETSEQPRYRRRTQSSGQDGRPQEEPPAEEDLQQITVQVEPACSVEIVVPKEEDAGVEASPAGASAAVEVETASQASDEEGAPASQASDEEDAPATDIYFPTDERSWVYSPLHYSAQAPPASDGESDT
Sequence of Death-associated protein kinase 3 (Homo sapiens) (O43293 whole entry, looked up): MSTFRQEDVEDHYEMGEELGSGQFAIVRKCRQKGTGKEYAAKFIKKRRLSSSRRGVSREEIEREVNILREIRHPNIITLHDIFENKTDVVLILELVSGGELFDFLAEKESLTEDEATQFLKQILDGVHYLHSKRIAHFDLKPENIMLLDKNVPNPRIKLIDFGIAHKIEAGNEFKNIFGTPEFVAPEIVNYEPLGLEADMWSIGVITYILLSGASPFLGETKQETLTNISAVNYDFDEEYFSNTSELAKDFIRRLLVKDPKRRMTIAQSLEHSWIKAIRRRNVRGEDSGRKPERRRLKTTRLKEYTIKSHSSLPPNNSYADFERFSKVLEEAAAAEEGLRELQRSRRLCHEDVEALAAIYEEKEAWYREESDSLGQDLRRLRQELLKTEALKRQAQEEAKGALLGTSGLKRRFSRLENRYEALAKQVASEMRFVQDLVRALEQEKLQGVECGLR
Sequence of Mitogen-activated protein kinase kinase kinase 11 (Q16584 whole entry): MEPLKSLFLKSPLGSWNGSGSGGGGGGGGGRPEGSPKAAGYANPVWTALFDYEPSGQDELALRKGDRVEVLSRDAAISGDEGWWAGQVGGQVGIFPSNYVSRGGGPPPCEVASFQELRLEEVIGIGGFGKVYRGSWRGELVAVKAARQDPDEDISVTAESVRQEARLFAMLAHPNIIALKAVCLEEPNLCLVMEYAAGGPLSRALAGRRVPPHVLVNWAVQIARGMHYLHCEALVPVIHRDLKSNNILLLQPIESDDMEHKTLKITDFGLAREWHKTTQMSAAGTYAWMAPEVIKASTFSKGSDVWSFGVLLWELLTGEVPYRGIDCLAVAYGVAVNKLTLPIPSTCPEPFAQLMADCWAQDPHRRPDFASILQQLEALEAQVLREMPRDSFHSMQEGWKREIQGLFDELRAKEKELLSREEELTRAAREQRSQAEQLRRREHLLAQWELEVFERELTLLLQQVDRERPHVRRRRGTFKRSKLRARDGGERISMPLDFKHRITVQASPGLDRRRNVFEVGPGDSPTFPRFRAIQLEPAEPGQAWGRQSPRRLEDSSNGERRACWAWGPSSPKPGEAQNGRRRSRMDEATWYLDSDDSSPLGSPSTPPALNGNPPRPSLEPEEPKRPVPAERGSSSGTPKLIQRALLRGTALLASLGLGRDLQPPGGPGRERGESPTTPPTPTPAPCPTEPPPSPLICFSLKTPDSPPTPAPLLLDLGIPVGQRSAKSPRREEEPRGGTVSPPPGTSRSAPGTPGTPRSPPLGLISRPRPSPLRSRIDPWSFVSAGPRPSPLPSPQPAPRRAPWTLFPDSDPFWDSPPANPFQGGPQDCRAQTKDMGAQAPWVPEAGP
Sequence of Calcium/calmodulin-dependent protein kinase type 1D (Homo sapiens) (Q8IU85 whole entry, looked up): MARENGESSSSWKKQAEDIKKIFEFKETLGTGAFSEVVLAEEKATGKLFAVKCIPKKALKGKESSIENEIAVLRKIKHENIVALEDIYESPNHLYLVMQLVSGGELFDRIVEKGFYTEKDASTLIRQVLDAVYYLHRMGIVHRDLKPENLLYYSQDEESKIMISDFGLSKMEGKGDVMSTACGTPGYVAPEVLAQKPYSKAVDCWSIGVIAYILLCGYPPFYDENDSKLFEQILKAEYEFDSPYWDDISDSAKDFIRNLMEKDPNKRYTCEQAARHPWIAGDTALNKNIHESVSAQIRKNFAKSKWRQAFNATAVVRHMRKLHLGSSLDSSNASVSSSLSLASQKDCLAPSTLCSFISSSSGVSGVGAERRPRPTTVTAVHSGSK

In turn, `NCCNc1ncc(C(N)=O)c(Nc2cccc(C(F)(F)F)c2)n1` showed a pIC50 in data set [1] of 8.15. For the same compound, the ΔTm came to 5.44 °C in data set [2]; 7.51 °C in [3]; 4.05 °C in data set [4]; 3.4 °C in data set [5]; 1.34 °C in data set [6]; 0.11 °C in data set [7].
With `CC(C)(C#N)c1cc(Nc2nc(N3CCC[C@H](N)C3)ncc2C(N)=O)cc(C(C)(C)C#N)c1`, the microsomal CLint in data set [8] is < 1 µL/min/mg; in [9], 13 µL/min/mg. The Drug metabolism in [10] was 11 µL/min; in data set [12], “Metabolite_Detected”; in data set [13] it was “Metabolite_Detected”; in data set [14] it was “Metabolite_Detected”. The pIC50 at Cytochrome P450 1A2, against Cytochrome P450 2D6 and against Cytochrome P450 3A4 was < 4.70 each time. In data set [11], the Drug excretion result was “Metabolite_Detected”. Moreover, the outcome with Mus musculus [15], in the data set with Mus musculus [16], in the data set with Mus musculus [17], in the data set on Mus musculus [18] and in the data set on Mus musculus [19] was Active. For the same compound, the result with Mus musculus [20] was inactive. Besides, in data set [21], the Activity result is recorded as “Toxic”.
Consider `CC(C)c1cc(Nc2nc(N3CCC[C@H](N)C3)ncc2C(N)=O)cc(C(C)C)n1`, for which the microsomal CLint worked out at 6 µL/min/mg in data set [22] and 3 µL/min/mg in data set [8]. The compound also had a Drug metabolism in data set [23] of 19 µL/min. Also, the pIC50 was < 4.70 at Cytochrome P450 1A2; < 4.70 against Cytochrome P450 2D6; < 4.70 on Cytochrome P450 3A4; 5.24 in data set [25]; 7.60 in [26]; 4.95 in data set [27]. Besides, the pIC50 in data set [28] is 5.56. Further, in data set [24], the Activity result is “Non-Toxic”. In “in vivo”, the Vd was found to be 18.5 L/kg.
